Results taken from PubChem BioAssay AID2027 (NMMLSC, 2009).

target: Ras-related C3 botulinum toxin substrate 1 (Homo sapiens) (UniProt P63000); experiment: wildtype Rac1 GTP binding inhibitors, SAR follow-up, biochemical, oxadiazole analogs, multiplex bead flow cytometry (AID 2027); conditions: GST-Rac1 beads, Bodipy-FL-GTP binding, Ki calculated from EC50

| Compound | Ki [µM] |
| --- | --- |
| COc1ccc(-c2noc(CCCCC(=O)N3CCN(c4cc(C)ccc4C)CC3)n2)cc1 | 1.96 |
| Cc1ccc(C)c(N2CCN(C(=O)CCc3nc(-c4ccc(Br)cc4)no3)CC2)c1 | 0.28 |
| Cc1ccc(C)c(N2CCN(C(=O)CCc3nc(-c4ccc(C(F)(F)F)cc4)no3)CC2)c1 | 0.2 |
| COc1ccc(-c2noc(CCC(=O)N3CCN(c4ccc(F)cc4)CC3)n2)cc1 | 0.15 |
| COc1ccc(-c2noc(CCC(=O)N3CCN(c4ccccc4F)CC3)n2)cc1 | 0.1 |
| COc1ccc(-c2noc(CCC(=O)N3CCN(c4cccc(C)c4C)CC3)n2)cc1 | 0.12 |
| COc1ccc(-c2coc(CCC(=O)N3CCN(c4cc(C)ccc4C)CC3)n2)cc1 | 0.21 |
| COc1ccc(-c2noc(CCC(=O)N3CCN(c4ccc(Br)cc4)CC3)n2)cc1 | 0.02 |
| Cc1ccc(C)c(N2CCN(C(=O)CCc3nc(-c4ccc(N(C)C)cc4)no3)CC2)c1 | 0.26 |
| COc1ccc(-c2noc(CCC(=O)N3CCN(c4ccc(OC)cc4)CC3)n2)cc1 | 0.05 |
| COc1ccc(-c2noc(CCC(=O)N3CCN(c4ccc(C)cc4)CC3)n2)cc1 | 0.25 |
| Cc1ccc(C)c(N2CCN(C(=O)CCc3nc(-c4cccc(F)c4)no3)CC2)c1 | 0.14 |
| COc1ccc(-c2noc(CCC(=O)N3CCN(c4ccccc4OC)CC3)n2)cc1 | 0.21 |
| COc1cccc(-c2noc(CCC(=O)N3CCN(c4cc(C)ccc4C)CC3)n2)c1 | 0.57 |
| COc1ccc(-c2noc(CCC(=O)N3CCN(c4ccccc4Br)CC3)n2)cc1 | 0.16 |
| Cc1ccc(C)c(N2CCN(C(=O)CCc3nc(-c4ccccc4Cl)no3)CC2)c1 | 0.11 |
| Cc1ccc(C)c(N2CCN(C(=O)CCc3nc(-c4cccc(C(F)(F)F)c4)no3)CC2)c1 | 0.23 |
| Cc1ccc(C)c(N2CCN(C(=O)CCc3nc(-c4cccc(Br)c4)no3)CC2)c1 | 0.16 |

| Compound | Ki [µM] |
| --- | --- |
| Cc1ccc(C)c(N2CCN(C(=O)CCc3nc(-c4ccccc4C(F)(F)F)no3)CC2)c1 | 0.2 |
| Cc1ccc(C)c(N2CCN(C(=O)CCc3nc(-c4ccccc4Br)no3)CC2)c1 | 0.16 |
| COc1ccc(-c2noc(CC(=O)N3CCN(c4cc(C)ccc4C)CC3)n2)cc1 | 0.7 |
| Cc1ccc(-c2noc(CCC(=O)N3CCN(c4cc(C)ccc4C)CC3)n2)cc1 | 0.3 |
| Cc1cccc(-c2noc(CCC(=O)N3CCN(c4cc(C)ccc4C)CC3)n2)c1 | 0.11 |
| Cc1ccc(C)c(N2CCN(C(=O)CCc3nc(-c4ccccc4C)no3)CC2)c1 | 0.16 |
| COc1ccc(-c2noc(CCC(=O)N3CCN(c4ccccc4C(F)(F)F)CC3)n2)cc1 | 0.16 |
| Cc1ccc(C)c(N2CCN(C(=O)CCc3nc(-c4ccccc4F)no3)CC2)c1 | 0.17 |
| Cc1ccc(C)c(N2CCN(C(=O)CCc3nc(-c4ccccc4)no3)CC2)c1 | 0.15 |
| COc1ccc(-c2noc(CCCC(=O)N3CCN(c4cc(C)ccc4C)CC3)n2)cc1 | 0.35 |
| COc1ccc(-c2noc(CCC(=O)N3CCN(c4ccccc4C)CC3)n2)cc1 | 0.13 |
| Cc1ccc(C)c(N2CCN(C(=O)CCc3nc(-c4ccc(Cl)cc4)no3)CC2)c1 | 0.17 |
| COc1ccc(-c2noc(CCC(=O)N3CCN(c4ccccc4Cl)CC3)n2)cc1 | 0.31 |
| COc1ccc(-c2noc(CCC(=O)N3CCN(c4cc(C)ccc4C)CC3)n2)cc1 | 0.47 |
| Cc1ccc(C)c(N2CCN(C(=O)CCc3nc(-c4cccc(Cl)c4)no3)CC2)c1 | 0.46 |
| COc1ccc(-c2noc(CCC(=O)N3CCC(c4cc(C)ccc4C)CC3)n2)cc1 | 0.11 |
| Cc1ccc(C)c(N2CCN(C(=O)CCc3nc(-c4ccc(F)cc4)no3)CC2)c1 | 0.12 |
| COc1ccccc1-c1noc(CCC(=O)N2CCN(c3cc(C)ccc3C)CC2)n1 | 1.41 |
